Source: patent US8426406B2, “Glucocorticoid receptor agonist comprising 2,2,4-trimethyl-6-phenyl-1,2-dihydroquinoline derivatives having substituted oxy group” (Santen Pharmaceutical Co., Ltd., priority 2008, dated 2013)

Experiments:
[1] = system: allergic conjunctivitis model in mice; assay: Inhibitory effect on the vascular hyper-permeability in allergic conjunctivitis model; format: in vivo; conditions: Mus musculus, 1% (W/V) test compound suspension instilled to the right eye three times before ovalbumin instillation, dye leakage vs vehicle, mean of 5-6 eyes, read-out: The inhibition ratio of the vascular hyper-permeability (%)
Method: In order to evaluate anti-allergic effect, inhibitory effect on the vascular hyper-permeability in allergic conjunctivitis model in mice was examined. This effect was calculated based on dye leakages of vehicle-treated group (control group) and test compound-treated group.
By adding 0.5% polysorbate 80/saline to the test compound, a 1% (W/V) test compound suspension was prepared.
1) Ovalbumin absorbed on aluminum hydroxide gel was dissolved in saline (20 μg ovalbumin/mL), and male BALE/c mice, 6 weeks old, were actively sensitized to the antigen by intraperitoneal injections of 500 μL of it.
2) On the 6th day from sensitization, sensitized mice were boosted by additional intraperitoneal injections of 500 μL ovalbumin absorbed on aluminum hydroxide gel (20 μg ovalbumin/mL).
3) On the 11th day, 12th day, 13th day, 14th day and 15th day from the first sensitization, allergic conjunctivitis were induced by installations to the right eyes of the mice of […] of 50% glycerol solution containing 15% (W/V) ovalbumin.
4) […] of test compound suspension per eye was instilled to the right eye of the above mice 15 min, 1 hr and 3 hrs before ovalbumin instillation (three times) on the 15th day from sensitization. In vehicle-treated group (control group), the mice were instilled with 0.5% polysorbate 80/saline in substitution for test compound suspension.
5) Just before ovalbumin instillation on the 15th day from sensitization, all animals received a tail intravenous injection of 0.1% Evans blue dye. The right periocular tissues of the mice, which were the leaked parts of dye, were collected 30 min after ovalbumin instillation. The dye was extracted from the tissues with the dye extraction liquid. Then the absorbance of the dye extract was measured. The dye leakage was calculated from the absorbance value, and the inhibition ratio of the vascular hyper-permeability of test compound-treated group was calculated according to calculation equation 1. The inhibition ratio of the vascular hyper-permeability of test compound-treated group(%)=(1−Ax/Ao)×100 (Calculation Equation 1) Ao: Dye leakage in vehicle-treated group (control group) Ax: Dye leakage in test compound-treated group (Test Results and Discussion)

[2] = system: IL-6 production induced by lipopolysaccharide (LPS) in human corneal epithelial cells; assay: Evaluation test for GR agonist activity: inhibition of LPS-induced IL-6 production in human corneal epithelial cells (HCE-T); format: cell-based; conditions: Corneal epithelial cell, 10 μL of 100 μM test compound solution per well, 4 hours incubation, efficacy relative to DEX
Method in brief: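 SV40-immortalized HCE-T cells were treated with test compound (100 μM solution, stock before dilution into well) plus LPS (1 μg/mL solution, likewise pre-dilution) for 4 hours in 10% FBS-DMEM/F12. IL-6 in supernatants was measured by HTRF. Inhibition was calculated relative to LPS-plus-DMSO and no-LPS controls, and efficacy was expressed as % of DEX inhibition.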

Row | Structure (SMILES) | inhibition in vivo at 10000 µg/mL [1] [%] | Emax [2] [%]
1 | COc1cc(OC(=O)c2ccco2)ccc1-c1ccc2c(c1COC(=O)c1ccc(C)s1)C(C)=CC(C)(C)N2 [Compound 1-138, 6-[4-(Furan-2-ylcarbonyloxy)-2-methoxyphenyl]-5-(5-methylthiophen-2-ylcarbonyloxymethyl)-2,2,4-trimethyl-1,2-dihydroquinoline] | 16 | 79
2 | COc1ccccc1C(=O)Oc1ccc(-c2ccc3c(c2COC(=O)c2ccc(C)s2)C(C)=CC(C)(C)N3)c(OC)c1 [Compound 1-136, 6-[2-Methoxy-4-(2-methoxybenzoyloxy)phenyl]-5-(5-methylthiophen-2-ylcarbonyloxymethyl)-2,2,4-trimethyl-1,2-dihydroquinoline] | 15 | 89
3 | CCC(=O)Oc1ccc(OC)c(-c2ccc3c(c2COc2cc(F)ccc2C)C(C)=CC(C)(C)N3)c1 [Compound 1-18, 5-(5-Fluoro-2-methylphenoxymethyl)-6-(2-methoxy-5-propionyloxyphenyl)-2,2,4-trimethyl-1,2-dihydroquinoline] | 30 | 77
4 | COc1cc(OC(=O)c2cccnc2)ccc1-c1ccc2c(c1COC(=O)c1ccc(C)s1)C(C)=CC(C)(C)N2 [Compound 1-137, 6-[2-Methoxy-4-(pyridin-3-ylcarbonyloxy)phenyl]-5-(5-methylthiophen-2-ylcarbonyloxymethyl)-2,2,4-trimethyl-1,2-dihydroquinoline] | 26 | 83
5 | COc1ccccc1NCc1c(-c2ccc(OC(=O)c3ccncc3)cc2OC)ccc2c1C(C)=CC(C)(C)N2 [Compound 1-102, 5-(2-Methoxyphenylaminomethyl)-6-[2-methoxy-4-(pyridin-4-ylcarbonyloxy)phenyl]-2,2,4-trimethyl-1,2-dihydroquinoline] | 16 | 99
